Assay results: patent US20040137639A1, “Method of judging efficacy of biological state action affecting bioligical state, judging apparatus, judging system, judging program and recording medium holding the program” (priority 2001, published 2004)

Test system: depressive patient
Experiment: Fluctuation in the difference of Lyapunov exponent and entropy (mirror dynamic) under medication
Assay type: in vivo, human
Conditions: Patient A or Patient B, early stages of treatment, FIG. 15
Procedure: Taking for an example the case where the action that may change a biological state is a medication, described below is a judging method for the symmetric property of Lyapunov exponent and entropy directly from the graph where the variations of these exponents with time are recorded.
This means, in other words, there exist fluctuations in the difference between Lyapunov exponent and entropy, and such a state can be called “mirror dynamic”. […] On the other hand, the fluctuation in the difference (shadow area) of Lyapunov exponent and entropy is minor in the early stages of treatment for Patient B, and therefore it can be judged that the effectiveness of medication of cloxazolam (1 mg) is low. […]
In the method according to this embodiment for judging the efficacy of an action, measurements of Lyapunov exponent and entropy are carried out at least twice, i.e. before and after the medication. […] Lyapunov exponent and entropy measured at least once after the medication are compared to the results before the medication, the variation in the symmetric property between the Lyapunov exponent and the entropy and the directional property of temporal variation in the difference between the Lyapunov exponent and the entropy, and then the effectiveness of the drug can be judged. […]

With `O=C1CN2CCOC2(c2ccccc2Cl)c2cc(Cl)ccc2N1` (stereo not shown) [cloxazolam, Cloxazolam] the “effectiveness of medication judged from fluctuation in the difference (shadow area) of Lyapunov exponent and entropy” value was “low”.
